Target: T1, wild-type HIV-1 protease (Human immunodeficiency virus type 1 group M subtype B, UniProt P04585)
T1 construct: Escherichia coli expressed wild-type HIV-1 protease protein; made in house; host or cells: Escherichia coli
Experiment: Assay for Inhibition of Microbial Expressed HIV Protease
Type: biochemical
Settings: Escherichia coli expressed wild-type HIV-1 protease, peptide substrate cleavage; mean of at least two independent experiments
Experimental: Inhibition of Escherichia coli expressed wild-type HIV-1 protease protein was carried out with a peptide substrate [Val-Ser-Gln-Asn-Wnaphtyl)Ala-Pro-Ile-Val]. The inhibitor compound was preincubated with HIV-1 protease enzyme in assay buffer (50 mM sodium acetate, pH 5.5, 100 mM NaCl, and 0.1% BSA) for 30 minutes at room temperature. Peptide substrate was added to 400 μM in a total volume of 20 μL containing 20 pM HIV-1 protease (final) after which the reaction was incubated for 1 hour at 30° C. The reaction was quenched by the addition of formic acid and HIV protease inhibitor indinavir to 0.012% and 150 nM final concentrations, respectively. Product formation was determined after separation of product and substrate on a ZORBAX Eclipse XDB-C18 column (Aligent Technologies, Santa Clara, Calif., USA) connected to an API 4000™ mass spectrometer (AB Sciex, Pte. Ltd., Concord Ontario, Canada) with multiple reaction monitoring (transitions were 644.5/428.9 and 615.4/422.2 (M1/M3) for product and indinavir respectively). The extent of inhibition of the reaction was determined from the peak area of the products. Analysis of the products, independently synthesized, provided quantitation standards and confirmation of the product composition. […] Ic50's refer to the 50% inhibition of the cleavage of a peptide substrate by hiv protease.
Data shown in the table reflects the mean of at least two independent experiments.

Structure (SMILES) | IC50
CN(Cc1ccccc1C(F)(F)F)C(=O)c1cccc(CN2C(=N)NC(c3ccc(F)cc3)(c3ccc(F)cc3)C2=O)c1 [Example 46, 3-{[4,4-bis(4-fluorophenyl)-2-imino-5-oxoimidazolidin-1-yl]methyl}-N-methyl-N-[2-(trifluoromethyl)-benzyl]benzamide] | 31.1 nM
CCCC1(c2ccccc2)NC(=N)N(Cc2cccc(C(=O)N(C)Cc3ccc(Cl)cn3)c2)C1=O (centres unmarked) [Example 47, N-[(5-chloropyridin-2-yl)methyl]-3-[(2-imino-5-oxo-4-phenyl-4-propylimidazolidin-1-yl)methyl]-N-methylbenzamide] | 33.3 nM
C[C@H](c1ccccc1)N(C)C(=O)c1cccc(CN2C(=N)NC(c3ccccc3)(c3ccccc3)C2=O)c1 [Example 48, 3-[(2-imino-5-oxo-4,4-diphenylimidazolidin-1-yl)methyl]-N-methyl-N-[(1R)-1-phenylethyl]benzamide] | 39.6 nM
CC(C)CCC1(c2cccc(F)c2)NC(=N)N(Cc2cccc(C(=O)N(C)Cc3ccc(Cl)cc3)c2)C1=O (centres unmarked) [Example 49, N-(4-chlorobenzyl)-3-{[4-(3-fluorophenyl)-2-imino-4-(3-methylbutyl)-5-oxoimidazolidin-1-yl]methyl}-N-methylbenzamide] | 43.5 nM
[2H]C([2H])([2H])N(C(=O)c1cccc(CN2C(=N)NC(c3ccc(F)cc3)(c3ccc(F)cc3)C2=O)c1)[C@H](C)c1ccc(F)cc1 [Example 50, 3-{[4,4-bis(4-fluorophenyl)-2-imino-5-oxoimidazolidin-1-yl]methyl}-N-[(1R)-1-(4-fluorophenyl)ethyl]-N(~2~H_3_)methylbenzamide] | 45.1 nM
CN(C)C(=O)c1cccc(CN2C(=N)NC(c3ccccc3)(c3cccc(-c4cccc(C#N)c4)c3)C2=O)c1 (centres unmarked) [Example 51, 3-{[4-(3'-cyanobiphenyl-3-yl)-2-imino-5-oxo-4-phenylimidazolidin-1-yl]methyl}-N,N-dimethylbenzamide] | 45.5 nM
CN(Cc1ccccc1S(C)(=O)=O)C(=O)c1cccc(CN2C(=N)NC(c3ccc(F)cc3)(c3ccc(F)cc3)C2=O)c1 [Example 52, 3-{[4,4-bis(4-fluorophenyl)-2-imino-5-oxoimidazolidin-1-yl]methyl}-N-methyl-N-[2-(methylsulfonyl)-benzyl]benzamide] | 48.3 nM
CN(C)C(=O)c1cccc(CN2C(=N)NC(c3ccc(F)cc3)(c3cccc(Br)c3)C2=O)c1 (centres unmarked) [Example 53, 3-{[4-(3-bromophenyl)-4-(4-fluorophenyl)-2-imino-5-oxoimidazolidin-1-yl]methyl}-N,N-dimethylbenzamide] | 48.6 nM
CN(C)C(=O)c1cccc(CN2C(=N)NC(c3ccccc3)(c3ccc(-c4cccc(C#N)c4)cc3)C2=O)c1 (centres unmarked) [Example 54, 3-{[4-(3'-cyanobiphenyl-4-yl)-2-imino-5-oxo-4-phenylimidazolidin-1-yl]methyl}-N,N-dimethylbenzamide] | 52.2 nM
CC(C)C[C@@]1(c2ccccc2)NC(=N)N([C@H](C)c2cccc(C(=O)N(C)Cc3ccc(F)cc3)c2)C1=O [Example 55, N-(4-fluorobenzyl)-3-((R)-1-((S)-2-imino-4-isobutyl-5-oxo-4-phenylimidazolidin-1-yl)ethyl)-N-methylbenzamide] | 52.9 nM
CN(C)C(=O)c1cccc(CN2C(=N)NC(c3ccccc3)(c3cccc(-c4ccco4)c3)C2=O)c1 (centres unmarked) [Example 56, 3-{[4-(3-furan-2-ylphenyl)-2-imino-5-oxo-4-phenylimidazolidin-1-yl]methyl}-N,N-dimethylbenzamide] | 56.3 nM
CN(Cc1cccnc1)C(=O)c1cccc(CN2C(=N)NC(c3ccc(F)cc3)(c3ccc(F)cc3)C2=O)c1 [Example 57, 3-{[4,4-bis(4-fluorophenyl)-2-imino-5-oxoimidazolidin-1-yl]methyl}-N-methyl-N-(pyridin-3-ylmethyl)benzamide] | 58.9 nM
CN(C)C(=O)c1cccc(CN2C(=N)NC(c3ccc(F)cc3)(c3cccc(-c4cccc(C#N)c4)c3)C2=O)c1 (centres unmarked) [Example 58, 3-{[4-(3'-cyanobiphenyl-3-yl)-4-(4-fluorophenyl)-2-imino-5-oxoimidazolidin-1-yl]methyl}-N,N-dimethylbenzamide] | 63.4 nM
CN(Cc1ccccn1)C(=O)c1cccc(CN2C(=N)NC(c3ccc(F)cc3)(c3ccc(F)cc3)C2=O)c1 [Example 59, 3-{[4,4-bis(4-fluorophenyl)-2-imino-5-oxoimidazolidin-1-yl]methyl}-N-methyl-N-(pyridin-2-ylmethyl)benzamide] | 65.9 nM
CN(Cc1cccc(S(C)(=O)=O)c1)C(=O)c1cccc(CN2C(=N)NC(c3ccc(F)cc3)(c3ccc(F)cc3)C2=O)c1 [Example 60, 3-{[4,4-bis(4-fluorophenyl)-2-imino-5-oxoimidazolidin-1-yl]methyl}-N-methyl-N-[3-(methylsulfonyl)benzyl]benzamide] | 69.2 nM
COc1ccccc1CN(C)C(=O)c1cccc(CN2C(=N)NC(c3ccc(F)cc3)(c3ccc(F)cc3)C2=O)c1 [Example 61, 3-{[4,4-bis(4-fluorophenyl)-2-imino-5-oxoimidazolidin-1-yl]methyl}-N-(2-methoxybenzyl)-N-methylbenzamide] | 76.7 nM
CN(C)C(=O)c1cccc(CN2C(=N)NC(c3ccccc3)(c3ccc(Br)cc3)C2=O)c1 (centres unmarked) [Example 62, 3-{[4-(4-bromophenyl)-2-imino-5-oxo-4-phenylimidazolidin-1-yl]methyl}-N,N-dimethylbenzamide] | 77.3 nM
CN(C)C(=O)c1cccc(CN2C(=N)NC(c3ccccc3)(c3cccc(-c4ccccc4)c3)C2=O)c1 (centres unmarked) [Example 63, 3-[(4-biphenyl-3-yl-2-imino-5-oxo-4-phenylimidazolidin-1-yl)methyl]-N,N-dimethylbenzamide] | 83.4 nM
CN(Cc1ccc(Cl)cc1)C(=O)c1cccc(CN2C(=N)NC(c3ccc(F)cc3)(c3cccc(-c4cccc(C#N)c4)c3)C2=O)c1 (centres unmarked) [Example 64, N-(4-chlorobenzyl)-3-{[4-(3'-cyanobiphenyl-3-yl)-4-(4-fluorophenyl)-2-imino-5-oxoimidazolidin-1-yl]methyl}-N-methylbenzamide] | 86.9 nM
CN(Cc1ccccc1F)C(=O)c1cccc(CN2C(=N)NC(c3ccc(F)cc3)(c3ccc(F)cc3)C2=O)c1 [Example 65, 3-{[4,4-bis(4-fluorophenyl)-2-imino-5-oxoimidazolidin-1-yl]methyl}-N-(2-fluorobenzyl)-N-methylbenzamide] | 89.9 nM
CN(Cc1ccccc1Cl)C(=O)c1cccc(CN2C(=N)NC(c3ccc(F)cc3)(c3ccc(F)cc3)C2=O)c1 [Example 66, 3-{[4,4-bis(4-fluorophenyl)-2-imino-5-oxoimidazolidin-1-yl]methyl}-N-(2-chlorobenzyl)-N-methylbenzamide] | 90.5 nM
N#Cc1ccc(CNC(=O)c2cccc(CN3C(=N)NC(c4ccc(F)cc4)(c4ccc(F)cc4)C3=O)c2)cc1 [Example 67, 3-{[4,4-bis(4-fluorophenyl)-2-imino-5-oxoimidazolidin-1-yl]methyl}-N-(4-cyanobenzyl)benzamide] | 95.2 nM
CN(Cc1cccc(F)c1)C(=O)c1cccc(CN2C(=N)NC(c3ccc(F)cc3)(c3ccc(F)cc3)C2=O)c1 [Example 68, 3-{[4,4-bis(4-fluorophenyl)-2-imino-5-oxoimidazolidin-1-yl]methyl}-N-(3-fluorobenzyl)-N-methylbenzamide] | 96.6 nM
CC(C)CC1(c2cccc(F)c2)NC(=N)N(Cc2cccc(C(=O)N(C)Cc3ccc(C#N)cc3)c2)C1=O (centres unmarked) [Example 69, N-(4-cyanobenzyl)-3-{[4-(3-fluorophenyl)-2-imino-4-(2-methylpropyl)-5-oxoimidazolidin-1-yl]methyl}-N-methylbenzamide] | 97.1 nM
CC(C)CC1(CC(C)C)NC(=N)N([C@H](C)c2cccc(C(=O)N(C)Cc3ccc(F)cc3)c2)C1=O [Example 70, N-(4-fluorobenzyl)-3-{(1R)-1-[2-imino-4,4-bis(2-methylpropyl)-5_ oxoimidazolidin-1-yl]ethyl}-N-methylbenzamide] | 99.1 nM
CC(C)CC1(c2ccccc2)NC(=N)N(Cc2ccc(Cl)c(C(=O)NCc3ccc(C#N)cc3)c2)C1=O (centres unmarked) [Example 71, 2-chloro-N-(4-cyanobenzyl)-5-{[2-imino-4-(2-methylpropyl)-5-oxo-4-phenylimidazolidin-1-yl]methyl}benzamide] | 8.19 nM
CC(C)CC1(c2ccccc2)NC(=N)N(Cc2ccc(Cl)c(C(=O)NCc3ccc(F)cc3)c2)C1=O (centres unmarked) [Example 72, 2-chloro-N-(4-fluorobenzyl)-5-{[2-imino-4-(2-methylpropyl)-5-oxo-4-phenylimidazolidin-1-yl]methyl}benzamide] | 9.5 nM
N=C1NC(c2ccccc2)(c2ccccc2)C(=O)N1Cc1ccc(Cl)c(C(=O)NCc2cnccn2)c1 [Example 73, 2-chloro-5-[(2-imino-5-oxo-4,4-diphenylimidazolidin-1-yl)methyl]-N-(pyrazin-2-ylmethyl)benzamide] | 11 nM
N#Cc1ccc(CNC(=O)c2cc(CN3C(=N)NC(c4ccccc4)(c4ccccc4)C3=O)ccc2Cl)cc1 [Example 74, 2-chloro-N-(4-cyanobenzyl)-5-[(2-imino-5-oxo-4,4-diphenylimidazolidin-1-yl)methyl]benzamide] | 11.4 nM
